Laboratory results from patent EP2140864A2 (H. Lundbeck A/S, priority 2001, dated 2002).
Read-outs that look alike come from different tables or passages of the source.

Target: T1, human GAL3 receptor (Homo sapiens, UniProt O60755)
T1 construct: expressed in transfected cells
T1 sequence (O60755 1-368): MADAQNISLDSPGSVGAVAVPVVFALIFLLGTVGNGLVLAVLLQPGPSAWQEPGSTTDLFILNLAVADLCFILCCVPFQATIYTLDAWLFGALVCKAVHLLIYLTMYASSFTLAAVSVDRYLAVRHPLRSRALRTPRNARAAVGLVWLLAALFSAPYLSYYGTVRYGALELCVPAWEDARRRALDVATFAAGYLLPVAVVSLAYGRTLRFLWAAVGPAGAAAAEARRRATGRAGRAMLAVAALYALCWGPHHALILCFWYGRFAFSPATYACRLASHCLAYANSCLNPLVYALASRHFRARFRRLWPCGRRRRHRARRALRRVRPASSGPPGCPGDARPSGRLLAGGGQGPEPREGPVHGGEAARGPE
Assay: Radioligand binding at cloned human GAL3 receptor
Conditions: cloned human receptor, read-out: Ki GalR3
Procedure, shortened: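 Compound vehicle, as final assay concentration, was 3% DMSO (indolones) or 1% ethanol/0.09% polypuronic acid F-127 (pyrimidines). Binding measured on fresh or frozen membranes of stably transfected LM(tk-) mouse fibroblasts carrying cloned human GAL3, in pH 7.4 HEPES buffer; values derived by nonlinear regression.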

Ki (indolones) [nM]	SMILES	Ki (pyrimidines) [nM]
	CN(C)c1cc(Nc2cccc3c2CCCC3)nc(N2CCN(c3ccccn3)CC2)n1 [Example 122]	65
	CCCCCc1ccc(Nc2cc(N(C)C)nc(N3CCN(c4ccccn4)CC3)n2)cc1 [Example 210]	58
224	O=C1/C(=N\c2cccc(C(F)(F)F)c2)c2ccccc2N1c1ccc(-c2ccccc2)cc1 [Example 309, (3Z)-1-[1,1'-BIPHENYL]-4-YL-3-{[3-(TRIFLUOROMETHYL)PHENYL]IMINO}-1,3-DIHYDRO-2H-INDOL-2-ONE]	
	CN(C)c1cc(Nc2ccc(Cl)cc2)nc(N2CCN(Cc3ccccc3)CC2)n1 [Example 171]	25
80	O=C1/C(=N\c2ccc(-c3ccccc3)cc2)c2ccccc2N1c1ccsc1 [Example 265, (3Z)-3-([1,1'-BIPHENYL]-4-YLIMINO)-1-(3-THIENYL)-1,3-DIHYDRO-2H-INDOL-2-ONE]	
	Cc1ccc(Nc2cc(N3CCCCC3)nc(N3CCc4ccccc43)n2)cc1 [Example 39]	128
236	CCOC(=O)c1cccc(/N=C2\C(=O)N(c3ccsc3)c3ccccc32)c1 [Example 266, ETHYL 3-{[(3Z)-2-OXO-1-(3-THIENYL)-1,2-DIHYDRO-3H-INDOL-3-YLIDENE]AMINO}BENZOATE]	
34	O=C1/C(=N\c2ccc(Cl)cc2)c2ccccc2N1c1ccsc1 [Example 261, (3Z)-3-[(4-CHLOROPHENYL)IMINO]-1-(3-THIENYL)-1,3-DIHYDRO-2H-INDOL-2-ONE]	
260	COc1ccc(/N=C2\C(=O)N(c3ccccc3)c3ccccc32)c(OC)c1 [Example 287, (3Z)-3-[(2,4-DIMETHOXYPHENYL)IMINO]-1-PHENYL-1,3-DIHYDRO-2H-INDOL-2-ONE]	
	COc1ccccc1CCNc1nc(Nc2ccc(C)cc2)cc(N(C)C)n1 [Example 150]	180
	CN(C)c1cc(Nc2ccc(C#N)c(Cl)c2)nc(N2CCN(Cc3ccccc3)CC2)n1 [Example 129]	405
	Cc1cccc(Nc2cc(N(C)C)nc(Nc3ccccc3)n2)c1 [Example 52]	570
